Experimental findings from patent US12398141B2 (SHANGHAI SYNERGY PHARMACEUTICAL SCIENCES CO., LTD, priority 2019, dated 2025) are described below.

What all share (type): biochemical
Test [1] addresses JAK1 (Homo sapiens (Human), UniProt P23458). Nature of the test: JAK1 LANCE Ultra kinase assay. The following applies: for IC50: 38 uM ATP; for JAK2/JAK1: ratio of IC50 JAK2 to IC50 JAK1. How it is done:
Inhibition test on activity of JAK kinase in vitro was carried out by the following methods.
JAK1 LANCE® Ultra assay, JAK2 LANCE® Ultra assay and JAK3 LANCE® Ultra assay were used to carry out the test separately, and kits of the above assays were supplied by PerkinElmer. […]
JAK1, JAK2 and JAK3 kinase, ATP and substrates were dissolved and diluted with buffers.
A test liquid was 2 nM Eu-W1024 anti-phosphotyrosine (PerkinElmer, AD0069). A stop buffer was 10 mM edetic acid (Intech, 1842C505).
2.5 μl of an 8-fold solution of the compound and 5 μl of a 4-fold solution of JAK1 or JAK2 or JAK3 kinase were added into a 384-well plate, respectively, and reacted for 10 minutes at room temperature. 2.5 μl of an 8-fold solution of ULight™-JAK-1 peptide/ATP was added and reacted for 90 minutes at room temperature. Finally, 5 μl of 4-fold edetic acid stop buffer and 5 μl of 4-fold test liquid of Eu-W1024 anti-phosphotyrosine were added and incubated for 60 minutes.
According to the formula: percentage of inhibition rate=(maximum value−transform value)/(maximum value−minimum value)×100, inhibition rate of each compound at various concentrations was calculated. The maximum value was the reference value of dimethyl sulfoxide added into the well plate, the minimum value was the blank value, and the transform value is the value obtained by the well of each compound. The IC50 values of the corresponding compounds were then obtained by fitting by using the XLFit fitting tool in excel.

The target in test [2] is JAK2 (Homo sapiens (Human), UniProt O60674). Nature of the test: JAK2 LANCE Ultra kinase assay. To be noted: 12 uM ATP. In general terms: In TR-FRET formats the signal depends on donor and acceptor labels being close together.
For test [3], the target named is JAK3 (Homo sapiens (Human), UniProt P52333). Nature of the test: JAK3 LANCE Ultra kinase assay. The following applies: 4 uM ATP.
Sequence of JAK3 (P52333 whole entry): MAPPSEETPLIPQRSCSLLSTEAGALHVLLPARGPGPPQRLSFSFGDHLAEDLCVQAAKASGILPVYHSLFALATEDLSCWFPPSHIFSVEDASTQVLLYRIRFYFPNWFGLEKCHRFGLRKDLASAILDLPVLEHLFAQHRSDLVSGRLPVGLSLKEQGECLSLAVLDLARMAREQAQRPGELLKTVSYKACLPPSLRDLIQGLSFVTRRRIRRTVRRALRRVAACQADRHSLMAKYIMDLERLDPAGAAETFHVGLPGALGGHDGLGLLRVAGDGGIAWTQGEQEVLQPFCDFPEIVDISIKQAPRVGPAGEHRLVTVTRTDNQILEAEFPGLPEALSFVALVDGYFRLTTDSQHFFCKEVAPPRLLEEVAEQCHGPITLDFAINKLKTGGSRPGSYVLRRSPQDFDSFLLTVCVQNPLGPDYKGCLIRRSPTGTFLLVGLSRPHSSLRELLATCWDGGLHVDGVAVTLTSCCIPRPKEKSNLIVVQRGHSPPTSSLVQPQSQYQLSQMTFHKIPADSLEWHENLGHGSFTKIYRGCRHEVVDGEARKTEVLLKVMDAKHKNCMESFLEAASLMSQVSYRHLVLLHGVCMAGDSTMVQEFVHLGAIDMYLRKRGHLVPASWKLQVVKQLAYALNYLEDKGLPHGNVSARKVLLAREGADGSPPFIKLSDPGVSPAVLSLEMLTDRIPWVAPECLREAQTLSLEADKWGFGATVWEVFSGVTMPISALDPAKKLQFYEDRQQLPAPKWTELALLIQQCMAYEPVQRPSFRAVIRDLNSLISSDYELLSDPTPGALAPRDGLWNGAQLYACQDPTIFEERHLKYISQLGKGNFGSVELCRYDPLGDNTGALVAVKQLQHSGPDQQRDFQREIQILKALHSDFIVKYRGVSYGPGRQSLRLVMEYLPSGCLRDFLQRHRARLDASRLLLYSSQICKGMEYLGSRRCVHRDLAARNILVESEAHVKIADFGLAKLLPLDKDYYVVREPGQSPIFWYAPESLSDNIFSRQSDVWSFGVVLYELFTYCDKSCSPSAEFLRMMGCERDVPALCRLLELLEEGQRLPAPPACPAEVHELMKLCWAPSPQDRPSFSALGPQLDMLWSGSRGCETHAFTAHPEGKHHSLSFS

Sequence of JAK2 (O60674 whole entry): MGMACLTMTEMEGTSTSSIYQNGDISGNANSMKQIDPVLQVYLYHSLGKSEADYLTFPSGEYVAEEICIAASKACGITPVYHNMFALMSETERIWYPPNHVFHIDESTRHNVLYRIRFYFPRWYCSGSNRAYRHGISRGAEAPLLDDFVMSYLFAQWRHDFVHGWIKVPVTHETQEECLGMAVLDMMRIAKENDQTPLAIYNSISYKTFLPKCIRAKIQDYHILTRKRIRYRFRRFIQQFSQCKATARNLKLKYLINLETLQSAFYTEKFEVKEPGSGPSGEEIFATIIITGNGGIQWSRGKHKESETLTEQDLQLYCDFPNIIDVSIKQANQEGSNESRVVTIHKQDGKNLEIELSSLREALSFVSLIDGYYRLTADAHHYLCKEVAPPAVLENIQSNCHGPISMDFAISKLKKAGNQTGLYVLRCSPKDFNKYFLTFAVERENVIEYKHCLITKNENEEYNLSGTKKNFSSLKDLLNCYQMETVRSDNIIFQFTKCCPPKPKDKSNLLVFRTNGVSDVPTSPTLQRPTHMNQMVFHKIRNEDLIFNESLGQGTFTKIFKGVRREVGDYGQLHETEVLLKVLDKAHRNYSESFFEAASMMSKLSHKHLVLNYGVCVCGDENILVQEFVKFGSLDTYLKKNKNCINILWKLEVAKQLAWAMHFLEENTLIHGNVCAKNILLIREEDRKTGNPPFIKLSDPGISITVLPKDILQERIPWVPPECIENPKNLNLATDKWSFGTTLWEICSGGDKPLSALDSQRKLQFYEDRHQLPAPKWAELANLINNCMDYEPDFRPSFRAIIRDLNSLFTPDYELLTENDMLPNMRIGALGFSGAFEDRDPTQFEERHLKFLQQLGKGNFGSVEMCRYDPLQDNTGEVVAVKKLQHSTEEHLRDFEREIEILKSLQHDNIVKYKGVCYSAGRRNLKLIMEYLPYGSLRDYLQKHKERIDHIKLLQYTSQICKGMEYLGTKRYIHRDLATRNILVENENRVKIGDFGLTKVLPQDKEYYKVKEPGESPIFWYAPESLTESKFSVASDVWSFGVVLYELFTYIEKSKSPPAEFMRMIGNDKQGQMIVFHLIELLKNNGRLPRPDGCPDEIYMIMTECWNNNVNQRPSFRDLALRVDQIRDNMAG
Sequence of JAK1 (P23458 whole entry): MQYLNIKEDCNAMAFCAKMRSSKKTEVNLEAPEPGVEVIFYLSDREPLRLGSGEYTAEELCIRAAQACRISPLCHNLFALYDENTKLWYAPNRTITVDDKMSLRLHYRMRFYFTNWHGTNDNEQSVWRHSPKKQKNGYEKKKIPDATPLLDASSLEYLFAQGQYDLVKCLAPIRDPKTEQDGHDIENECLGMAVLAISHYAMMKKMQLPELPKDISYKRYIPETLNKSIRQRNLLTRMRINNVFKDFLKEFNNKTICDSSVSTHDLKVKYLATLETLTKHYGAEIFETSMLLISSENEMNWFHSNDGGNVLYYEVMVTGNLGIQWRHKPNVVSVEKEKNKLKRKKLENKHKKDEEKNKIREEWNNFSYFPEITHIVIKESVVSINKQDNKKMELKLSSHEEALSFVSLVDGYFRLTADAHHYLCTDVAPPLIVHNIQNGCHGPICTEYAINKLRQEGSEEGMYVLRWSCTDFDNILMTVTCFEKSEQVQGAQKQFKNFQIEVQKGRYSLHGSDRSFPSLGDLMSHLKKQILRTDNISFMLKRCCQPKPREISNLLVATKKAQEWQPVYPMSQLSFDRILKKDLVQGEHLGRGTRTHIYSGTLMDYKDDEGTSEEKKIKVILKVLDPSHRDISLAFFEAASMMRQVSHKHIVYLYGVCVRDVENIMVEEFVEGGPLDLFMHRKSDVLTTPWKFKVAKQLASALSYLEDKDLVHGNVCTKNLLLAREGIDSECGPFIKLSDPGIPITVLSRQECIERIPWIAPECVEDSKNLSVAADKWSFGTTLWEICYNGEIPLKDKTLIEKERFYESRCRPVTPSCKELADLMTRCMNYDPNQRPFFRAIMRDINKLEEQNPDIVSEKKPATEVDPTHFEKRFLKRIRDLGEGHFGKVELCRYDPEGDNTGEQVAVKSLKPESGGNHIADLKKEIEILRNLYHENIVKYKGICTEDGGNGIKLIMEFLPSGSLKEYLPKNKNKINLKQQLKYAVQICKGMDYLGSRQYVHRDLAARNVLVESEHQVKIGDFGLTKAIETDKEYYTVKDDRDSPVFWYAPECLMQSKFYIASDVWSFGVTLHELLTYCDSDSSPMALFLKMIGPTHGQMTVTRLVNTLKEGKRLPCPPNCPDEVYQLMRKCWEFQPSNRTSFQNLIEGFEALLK

As for `CN(c1c(C#N)cnc2[nH]ccc12)[C@H]1C[C@@H]2CN(C(=O)Nc3nc(C(C)(C)C)ns3)C[C@@H]2C1` [Compound H21, (3aR,5s,6aS)-4-({2-[(3-tert-butyl-1,2,4-thiadiazole-5-yl)carbamoyl]-hexahydrocyclopenta [c]pyrrole-5-yl}-methyl-amino)-1H-pyrrolo[2,3-b]pyridin-5-carbonitrile], the IC50 (as a rule, the concentration that inhibits the measured activity by half) in test [1] was 9.4 nM; in test [2] it was 46 nM; in test [3], 223 nM. For the same compound, in test [1], the JAK2/JAK1 was determined as 15.40.

Regarding `C[C@H](O)C(=O)N1C[C@H]2C[C@H](N(C)c3c(C#N)cnc4[nH]ccc34)C[C@H]2C1` [Compound H23, (3aR,5S,6aS)-4-{[2-((2S)-2-hydroxypropionyl)-hexahydrocyclopenta[c]pyrrole-5-yl]-methyl-amino}-1H-pyrrolo[2,3-b]pyridin-5-carbonitrile], the IC50 was found to be 7.16 nM in test [1], 135 nM in test [2] and 533 nM in test [3]. Also, the JAK2/JAK1 in test [1] came to 18.85.

Consider `CN(c1c(C#N)cnc2[nH]ccc12)[C@H]1C[C@@H]2CN(S(=O)(=O)c3cccc(C(F)(F)F)c3)C[C@@H]2C1` [Compound H24], for which the figures for the half-inhibitory concentration (IC50) in test [1], in test [2] and in test [3] were 5.1 nM, 12.6 nM and 28 nM, respectively. For the same compound, the JAK2/JAK1 in test [1] was 2.40.

Regarding `CN(c1c(C#N)cnc2[nH]ccc12)[C@H]1C[C@@H]2CN(S(=O)(=O)CCC(F)(F)F)C[C@@H]2C1` [Compound H27], the IC50 worked out at 5.6 nM in test [1], 33 nM in test [2] and 171 nM in test [3]. Also, the JAK2/JAK1 in test [1] worked out at 5.89.

As to `CN(c1c(C#N)cnc2[nH]ccc12)[C@H]1C[C@@H]2CN(S(=O)(=O)c3cccc(F)c3)C[C@@H]2C1` [Compound H28], the IC50 in test [1] worked out at 9.5 nM; in test [2] it was 135 nM; in test [3] it was 220 nM. In test [1], the JAK2/JAK1 amounted to 14.21.

As to `CN(c1c(C#N)cnc2[nH]ccc12)[C@H]1C[C@@H]2CN(C(=O)Nc3nc(C4CC4)no3)C[C@@H]2C1` [Compound H32, (3aR,5s,6aS)-4-({2-[(3-cyclopropyl-1,2,4-oxadiazole-5-yl)carbamoyl]-hexahydrocyclopenta[c]pyrrole-5-yl}-methyl-amino)-1H-pyrrolo[2,3-b]pyridin-5-carbonitrile], the IC50 in test [1] amounted to 5 nM; in test [2] it was 13 nM; in test [3] it was 27 nM. Further, in test [1], the JAK2/JAK1 is 2.60.

On to `CN(c1c(C#N)cnc2[nH]ccc12)[C@H]1C[C@@H]2CN(C(=O)Nc3nc(OCC(C)(C)O)ns3)C[C@@H]2C1` [Compound H45, (3aR,5s,6aS)-5-((5-cyano-1H-pyrrolo[2,3-b]pyridin-4-yl)(methyl)amino)-N-(3-(2-hydroxy-2-methyl-propoxy)-1,2,4-thiadiazole-5-yl)hexahydrocyclopentadiene[c]pyrrole-2(1H)-carboxamide], for which the IC50 worked out at 5.9 nM in test [1], 50 nM in test [2] and 77 nM in test [3]. The JAK2/JAK1 in test [1] is 8.47.

As to `CCCS(=O)(=O)N[C@H]1C[C@@H](Nc2c(C#N)cnc3[nH]ccc23)C1` [Compound H46, (cis)-4-{[3-(propanesulfonamido)-cyclobutyl-1-yl]-amino}-1H-pyrrolo [2,3-b]pyridin-5-carbonitrile], the IC50 was 1.13 nM in test [1], 9.8 nM in test [2] and 68 nM in test [3]. Besides, in test [1], the JAK2/JAK1 came out at 8.67.

With `CCOc1noc(NC(=O)N2C[C@H]3C[C@H](N(C)c4c(C#N)cnc5[nH]ccc45)C[C@H]3C2)n1` [Compound H47, (3aR,5s,6aS)-5-((5-cyano-1H-pyrrolo[2,3-b]pyridin-4-yl)(methyl)amino)-N-(3-ethoxy-1,2,4-oxadiazole-5-yl)hexahydrocyclopentadiene[c]pyrrole-2(1H)-carboxamide], the values for the concentration for half-maximal inhibition (IC50) in test [1], in test [2] and in test [3] were 2.67 nM, 20 nM and 130 nM, respectively. Further, the JAK2/JAK1 in test [1] worked out at 7.49.

Regarding `CCOc1nc(NC(=O)N2C[C@H]3C[C@H](N(C)c4c(C#N)cnc5[nH]ccc45)C[C@H]3C2)no1` [Compound H48, (3aR,5s,6aS)-5-((5-cyano-1H-pyrrolo[2,3-b]pyridin-4-yl)(methyl)amino)-N-(5-ethoxy-1,2,4-oxadiazole-3-yl)hexahydrocyclopentadiene[c]pyrrole-2(1H)-carboxamide], the values for the IC50 in test [1], in test [2] and in test [3] were 0.86 nM, 7.4 nM and 56 nM, respectively. In addition, in test [1], the JAK2/JAK1 is recorded as 8.60.

As for `N#Cc1cnc2[nH]ccc2c1N[C@H]1C[C@@H]2CN(C(=O)Nc3nc(C4CC4)ns3)C[C@@H]2C1` [Compound H49, (3aR,5s,6aS)-5-((5-cyano-1H-pyrrolo[2,3-b]pyridin-4-yl)amino)-N-(3-cyclopropyl-1,2,4-thiadiazole-5-yl)hexahydrocyclopentadiene[c]pyrrole-2(1H)-carboxamide], the IC50 in test [1] is 5.43 nM; in test [2], 15 nM; in test [3], 178 nM. The JAK2/JAK1 in test [1] worked out at 2.76.

In the case of `COCCOc1nsc(NC(=O)N2C[C@H]3C[C@H](N(C)c4c(C#N)cnc5[nH]ccc45)C[C@H]3C2)n1` [Compound H51, (3aR,5S,6aS)-5-((5-cyano-1H-pyrrolo[2,3-b]pyridin-4-yl)(methyl)amino)-N-(3-(2-methoxyethoxy)-1,2,4-thiadiazole-5-yl)hexahydrocyclopenta[c]pyrrole-2(1H)-carboxamide], the IC50 in test [1] came to 6.89 nM; in test [2], 30.9 nM; in test [3], 101 nM. In addition, in test [1], the JAK2/JAK1 is on record as 4.49.

For `COCCOc1nsc(NC(=O)N2C[C@H]3C[C@H](Nc4c(C#N)cnc5[nH]ccc45)C[C@H]3C2)n1` [Compound H52, (3aR,5S,6aS)-5-((5-cyano-1H-pyrrolo[2,3-b]pyridin-4-yl)amino)-N-(3-(2-methoxyethoxy)-1,2,4-thiadiazole-5-yl)hexahydrocyclopenta[c]pyrrole-2(1H)-carboxamide], the IC50 was 0.79 nM in test [1], 7.95 nM in test [2] and 69 nM in test [3]. Moreover, in test [1], the JAK2/JAK1 turned out to be 10.06.

`CN(C)Cc1nsc(NC(=O)N2C[C@H]3C[C@H](Nc4c(C#N)cnc5[nH]ccc45)C[C@H]3C2)n1` [Compound H55, (3aR,5s,6aS)-5-((5-cyano-1H-pyrrole[2,3-b]pyridin-4-yl)amino)-N-(3-((dimethylamino)methyl)-1,2,4-thiadiazole-5-yl)hexahydrocyclopenta[c]pyrrole-2(1H)-carboxamide]: the IC50 in test [1] amounted to 2.59 nM; in test [2], 17.7 nM; in test [3], 253 nM. For the same compound, the JAK2/JAK1 in test [1] is given as 6.83.

Turning to `COCc1nsc(NC(=O)N2C[C@H]3C[C@H](N(C)c4c(C#N)cnc5[nH]ccc45)C[C@H]3C2)n1` [Compound H56], the figures for the IC50 in test [1], in test [2] and in test [3] were 1.43 nM, 10 nM and 82 nM, respectively. In addition, in test [1], the JAK2/JAK1 amounted to 7.01.

Turning to `COCc1nsc(NC(=O)N2C[C@H]3C[C@H](Nc4c(C#N)cnc5[nH]ccc45)C[C@H]3C2)n1` [Compound H57], the IC50 was found to be 0.89 nM in test [1], 6.4 nM in test [2] and 48 nM in test [3]. Also, the JAK2/JAK1 in test [1] worked out at 7.19.

For `CC[C@@H]1CC(NS(=O)(=O)c2cccc(C(F)(F)F)c2)C[C@@H]1Nc1c(C#N)cnc2[nH]ccc12` (stereo partly shown) [Compound H60, N-(3-((5-cyano-1H-pyrrolo[2,3-b]pyridin-4-yl)amino)-4-ethylcyclopentyl)-3-(trifluoromethyl)benzsulfamide], the IC50 in test [1] came out at 5.6 nM; in test [2], 35 nM; in test [3], 153 nM. Also, in test [1], the JAK2/JAK1 was determined as 6.25.

On to `CC[C@@H]1CC(NC(=O)Nc2nc(OC)ns2)C[C@@H]1Nc1c(C#N)cnc2[nH]ccc12` (stereo partly drawn) [Compound H61, 1-((3S,4R)-3-((5-cyano-1H-pyrrolo[2,3-b]pyridin-4-yl)amino)-4-ethylcyclopentyl)-3-(3-methoxy-1,2,4-thiadiazole-5-yl)urea], for which the concentration for half-maximal inhibition (IC50) in test [1] was determined as 8.23 nM; in test [2], 126 nM; in test [3], 589 nM. Besides, the JAK2/JAK1 in test [1] was found to be 15.31.

With `CN1CCN(S(=O)(=O)C[C@H]2CC[C@H](N(C)c3c(C#N)cnc4[nH]ccc34)CC2)CC1` [Compound H63, Trans-4-(methyl((1r,4r)-4-(((4-methylpiperazin-1-yl)sulfonyl)methyl)cyclohexyl)amino)-1H-pyrrolo[2,3-b]pyridin-5-carbonitrile], the results for the IC50 in test [1], in test [2] and in test [3] were 1.42 nM, 7.3 nM and 64 nM, respectively. Moreover, in test [1], the JAK2/JAK1 is 5.14.
